Assay results: US11919902B2, “Aryl-bipyridine amine derivatives as phosphatidylinositol phosphate kinase inhibitors” (HiberCell, Inc., priority 2017, dated 2024)

Experiments:
GST tagged PIP4KtypeIIA = target: T1, GST tagged PIP4KtypeIIA (Homo sapiens, UniProt P48426); assay: ADP-glo kinase assay PIP4K 2A (PIP4KtypeIIA inhibition assay); type: biochemical; settings: Table 3; compounds listed under IC50 range headings; 10 uM ATP, 0.5 nM PIP4KIIA
T1 construct: made in house; host or cells: E. coli
T1 sequence (P48426 1-406): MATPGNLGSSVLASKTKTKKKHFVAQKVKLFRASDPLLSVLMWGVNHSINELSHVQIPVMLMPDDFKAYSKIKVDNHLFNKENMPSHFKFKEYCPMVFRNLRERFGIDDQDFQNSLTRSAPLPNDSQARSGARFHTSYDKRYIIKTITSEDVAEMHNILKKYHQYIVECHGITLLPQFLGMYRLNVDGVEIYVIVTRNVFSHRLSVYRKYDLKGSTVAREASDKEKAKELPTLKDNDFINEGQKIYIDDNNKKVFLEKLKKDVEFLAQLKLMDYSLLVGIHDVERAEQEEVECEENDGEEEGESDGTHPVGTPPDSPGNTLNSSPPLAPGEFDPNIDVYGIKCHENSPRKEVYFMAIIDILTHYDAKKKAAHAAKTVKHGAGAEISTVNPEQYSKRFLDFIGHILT
From the text: GST tagged PIP4KtypeIIA and B enzymes were overexpressed in E. Coli and purified to >80% homogeneity. Phosphatidyl inositol-5-phosphate (PI5P, Cat. #850152, Avanti Polar Lipids Inc.) was used as the lipid substrate and phosphatidyl ethanolamine (DOPE 18:1, Cat. #850725, Avanti Polar Lipids Inc.) was used as the carrier lipid for assays. Ultrapure ATP and GTP was purchased from Bellbrooke Labs. ADP Glo reagents were obtained from Promega. Transcreener FI reagent was obtained from Bellbrooke labs.
1. HEPES buffer mix: 200 mM HEPES pH 7.4, 50 mM MgCl2, 0.05% v/v triton×100
2. HNE buffer: 20 mM HEPES, pH 7.4, 100 mM NaCl, 0.5 mM EGTA
3. H:E buffer: 30 mM HEPES, pH 7.4, 1 mM EGTA
Enzyme preparation: GST-tagged PIP4KtypeIIA (5 uL, 1.43 mg/mL) was diluted (1:10) to 50 uL using HNE buffer. From the 1:10 diluted stock, a 6.4 uL aliquot was diluted further to 5 mL using HNE buffer to yield 5× enzyme stock (2.5 nM).
Lipid Preparation: In a 10 mL pyrex glass vial, lug of PI5P and lug of DOPE were suspended in 2.5 mL of HEPES buffer mix and 2.5 mL of H:E buffer. The contents were mixed and sonicated for 3 min to yield a translucent lipid stock.
Compound Preparation: Compounds were stored as 5 mM stocks in neat DMSO as room temperature in glass vials. 5 mM stocks were diluted to 2 mM and then serially diluted (3×) in neat DMSO in 96 well polypropylene plates. From the serially diluted stocks, 3 uL was delivered into 250 uL of 25% DMSO (in water) to generate 5× compound stocks. Typically, the highest compound conc. was 24 uM.
The assay volume was kept at 25 uL. To each well of the reaction plate, 10 uL of lipid stock (1:1 ratio PI5P:DOPE) was delivered. This was followed by the addition of 5 uL of compound in 25% DMSO. Then, to each well, 5 uL of 2.5 nM (5×) typeIIA enzyme was delivered. The contents were mixed well and incubated for 1 h at 27 C. After 1 h, reaction was initiated by adding 5 uL of 50 uM ATP and the contents were mixed well with a multi-channel pipetteman. The final concentration of the reagents are as follows: 50 mM HEPES, pH 7.3, 10 mM MgCl2, 20 mM NaCl, 0.01% v/v triton-X100, 5% DMSO, 10 uM ATP, 80 uM (2 ug) PI5P, 2 ug DOPE, and 0.5 nM PIP4KIIA. Typically, the highest conc. of compounds was 4.8 uM and the lowest conc. was 0.
After 1 hr, the reaction was quenched by adding 25 uL of ADP Glo reagent. The contents were incubated for 1 hr. Afterwards, 50 uL of kinase detection reagent was delivered. The contents were incubated for another hour. The luminescence was read using Molecular Devices Paradigm plate reader. […] The blanks were averaged and subtracted from all other wells. Using a calibration curve, RLU was converted to uM ADP (product). IC50 was calculated by plotting the residual activity (expressed as % No inhibitor control) vs. log [Inh. conc.]

GST tagged PIP4KtypeIIB = target: T2, GST tagged PIP4KtypeIIB (Homo sapiens, UniProt P78356); assay: Trans-FI P kinase assay PIP4K2B (PIP4KtypeIIB inhibition assay); type: biochemical; settings: Table 4; compounds listed under IC50 range headings; 100 uM GTP, 5 nM PIP4KIIB; read-out: Trans-FI P kinase assays: PIP4K2B IC50
T2 construct: made in house; host or cells: E. coli
T2 sequence (P78356 1-416): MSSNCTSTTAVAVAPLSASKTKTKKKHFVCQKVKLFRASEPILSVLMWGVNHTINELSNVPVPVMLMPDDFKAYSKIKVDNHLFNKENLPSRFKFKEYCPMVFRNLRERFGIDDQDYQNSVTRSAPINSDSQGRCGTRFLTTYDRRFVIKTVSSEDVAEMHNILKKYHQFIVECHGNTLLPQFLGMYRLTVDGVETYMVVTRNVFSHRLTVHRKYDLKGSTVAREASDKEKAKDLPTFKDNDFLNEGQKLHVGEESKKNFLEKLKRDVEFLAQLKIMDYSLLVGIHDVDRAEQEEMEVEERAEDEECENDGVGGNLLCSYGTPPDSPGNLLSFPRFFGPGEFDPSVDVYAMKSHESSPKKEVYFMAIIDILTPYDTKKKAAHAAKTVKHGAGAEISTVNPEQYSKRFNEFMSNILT
Procedure, shortened: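 Purified GST-PIP4KIIB (5 nM final), 1 h preincubation with compound at 27 C, then 2 h reaction with 100 uM GTP and 80 uM PI5P plus DOPE carrier lipid in pH 7.3 HEPES/MgCl2/Triton buffer with 5% DMSO. GDP read by Transcreener FI fluorescence against a calibration curve; IC50 from % no-inhibitor activity vs log concentration.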

IC50 (GST tagged PIP4KtypeIIA) [nM] | IC50 (GST tagged PIP4KtypeIIB) [nM] | Compound
100 to 1000 | 10 to 100 | O=C(NCCc1nn[nH]n1)c1cc2c(-c3cncc(-c4ccc(N5CCCC5=O)cc4)c3)ccnc2[nH]1 [Example 251, N-(2-(2H-tetrazol-5-yl)ethyl)-4-(5-(4-(2-oxopyrrolidin-1-yl)phenyl)pyridin-3-yl)-1H-pyrrolo[2,3-b]pyridine-2-carboxamide]
100 to 1000 | 10 to 100 | O=C(NC1CC1)c1cc2c(-c3cncc(-c4ccc(N5CCCC5=O)cc4)c3)ccnc2[nH]1 [Example 242, N-cyclopropyl-4-(5-(4-(2-oxopyrrolidin-1-yl)phenyl)pyridin-3-yl)-1H-pyrrolo[2,3-b]pyridine-2-carboxamide]
100 to 1000 | 10 to 100 | O=C(NCCc1nccs1)c1cc2c(-c3cncc(-c4ccc(N5CCCC5=O)cc4)c3)ccnc2[nH]1 [Example 256, 4-(5-(4-(2-oxopyrrolidin-1-yl)phenyl)pyridin-3-yl)-N-(2-(thiazol-2-yl)ethyl)-1H-pyrrolo[2,3-b]pyridine-2-carboxamide]
10 to 100 | 10 to 100 | CN(C)C(=O)c1cnc2[nH]c(C3CC3)c(-c3cncc(-c4ccc(N5CCCC5=O)cc4)c3)c2c1 [Example 252, 2-cyclopropyl-N,N-dimethyl-3-(5-(4-(2-oxopyrrolidin-1-yl)phenyl)pyridin-3-yl)-1H-pyrrolo[2,3-b]pyridine-5-carboxamide]
100 to 1000 | 10 to 100 | O=C(NCCc1ccccn1)c1cc2c(-c3cncc(-c4ccc(N5CCCC5=O)cc4)c3)ccnc2[nH]1 [Example 246, 4-(5-(4-(2-oxopyrrolidin-1-yl)phenyl)pyridin-3-yl)-N-(2-(pyridin-2-yl)ethyl)-1H-pyrrolo[2,3-b]pyridine-2-carboxamide]
1000 to 2500 | > 5000 | O=C(N[C@H]1C[C@H](c2ccccc2)C1)c1cc2c(-c3cncc(-c4ccc(N5CCCC5=O)cc4)c3)ccnc2[nH]1 [Example 297, 4-(5-(4-(2-oxopyrrolidin-1-yl)phenyl)pyridin-3-yl)-N-((1r,3r)-3-phenylcyclobutyl)-1H-pyrrolo[2,3-b]pyridine-2-carboxamide]
100 to 1000 | 10 to 100 | O=C(NCCc1ccncc1)c1cc2c(-c3cncc(-c4ccc(N5CCCC5=O)cc4)c3)ccnc2[nH]1 [Example 247, 4-(5-(4-(2-oxopyrrolidin-1-yl)phenyl)pyridin-3-yl)-N-(2-(pyridin-4-yl)ethyl)-1H-pyrrolo[2,3-b]pyridine-2-carboxamide]
100 to 1000 | 10 to 100 | CNC(=O)c1cc2c(-c3cncc(-c4ccc(N5CCCC5=O)cc4)c3)ccnc2[nH]1 [Example 240, N-methyl-4-(5-(4-(2-oxopyrrolidin-1-yl)phenyl)pyridin-3-yl)-1H-pyrrolo[2,3-b]pyridine-2-carboxamide]

Continued, molecule first:

Compound | IC50 (GST tagged PIP4KtypeIIA) [nM] | IC50 (GST tagged PIP4KtypeIIB) [nM]
O=C(NCCc1ccccc1)c1cc2c(-c3cncc(-c4ccc(N5CCCC5=O)cc4)c3)ccnc2[nH]1 [Example 236, 4-(5-(4-(2-oxopyrrolidin-1-yl)phenyl)pyridin-3-yl)-N-phenethyl-1H-pyrrolo[2,3-b]pyridine-2-carboxamide] | 100 to 1000 | 10 to 100
O=C(NCc1ccccc1)c1cc2c(-c3cncc(-c4ccc(N5CCCC5=O)cc4)c3)ccnc2[nH]1 [Example 232, N-benzyl-4-(5-(4-(2-oxopyrrolidin-1-yl)phenyl)pyridin-3-yl)-1H-pyrrolo[2,3-b]pyridine-2-carboxamide] | 100 to 1000 | 10 to 100
Cc1c(-c2ccc(N3CCCC3=O)cc2)cncc1-c1cn(C)c2ncc([C@@H](C)O)cc12 (single isomer, unassigned) [196(R)] | 100 to 1000 | 100 to 1000
O=C1CCCN1c1ccc(-c2cncc(-c3ccnc4c3cc3n4CCN(c4ccccn4)C3=O)c2)cc1 [Example 207, 4-(5-(4-(2-oxopyrrolidin-1-yl)phenyl)pyridin-3-yl)-7-(pyridin-2-yl)-8,9-dihydropyrido[3′,2′:4,5]pyrrolo[1,2-a]pyrazin-6(7H)-one] | 10 to 100 | 10 to 100
CN(C)C(=O)c1ccc(-c2cc(-c3ccnc4[nH]c(C(=O)N[C@H]5COC[C@H]5N)cc34)cnc2N)nc1 [Example 226, 4-(2′-amino-5-(dimethylcarbamoyl)-[2,3′-bipyridin]-5′-yl)-N-((3R,4S)-4-aminotetrahydrofuran-3-yl)-1H-pyrrolo[2,3-b]pyridine-2-carboxamide] | 1000 to 2500 | 10 to 100
CN1CCn2c(cc3c(-c4cncc(-c5ccc(N6CC7(CC7)CC6=O)cc5)c4)ccnc32)C1=O [Example 201, 7-methyl-4-(5-(4-(6-oxo-5-azaspiro[2.4]heptan-5-yl)phenyl)pyridin-3-yl)-8,9-dihydropyrido[3′,2′:4,5]pyrrolo[1,2-a]pyrazin-6(7H)-one] | 100 to 1000 | 10 to 100
CN(C)C(=O)c1ccc(-c2cc(-c3ccnc4[nH]c(C(=O)N5CCS(=O)(=O)CC5)cc34)cnc2N)nc1 [Example 142, 2′-amino-5′-(2-(1,1-dioxidothiomorpholine-4-carbonyl)-1H-pyrrolo[2,3-b]pyridin-4-yl)-N,N-dimethyl-[2,3′-bipyridine]-5-carboxamide] | 100 to 1000 | 100 to 1000
O=C(NCc1ccncc1)c1cc2c(-c3cncc(-c4ccc(N5CCCC5=O)cc4)c3)ccnc2[nH]1 [Example 233, 4-(5-(4-(2-oxopyrrolidin-1-yl)phenyl)pyridin-3-yl)-N-(pyridin-4-ylmethyl)-1H-pyrrolo[2,3-b]pyridine-2-carboxamide] | 100 to 1000 | 10 to 100
CN(C(=O)c1ccc(-c2cncc(-c3ccnc4[nH]ncc34)c2)cc1)c1cccc(-n2ccnn2)c1 [Example 206, N-(3-(1H-1,2,3-triazol-1-yl)phenyl)-4-(5-(1H-pyrazolo[3,4-b]pyridin-4-yl)pyridin-3-yl)-N-methylbenzamide] | > 5000 | > 5000
CN(C)C(=O)c1ccc(-c2cc(-c3ccnc4[nH]c(C(=O)NCCN)cc34)cnc2N)nc1 [Example 133, 4-(2′-amino-5-(dimethylcarbamoyl)-[2,3′-bipyridin]-5′-yl)-N-(2-aminoethyl)-1H-pyrrolo[2,3-b]pyridine-2-carboxamide] | 1000 to 2500 | 100 to 1000
